ChEMBL document CHEMBL4346657, “Anticancer activity, dual prooxidant/antioxidant effect and apoptosis induction profile of new bichalcophene-5-carboxamidines” (Eur J Med Chem, 2019)

Key:
[1] = test system: UO-31; assay: Antiproliferative activity against human UO31 cells assessed as growth inhibition after 48 hrs by sulforhodamine B assay; assay type: functional; settings: UO-31, 48 h
[2] = test system: TK-10; assay: Antiproliferative activity against human TK10 cells assessed as growth inhibition after 48 hrs by sulforhodamine B assay; assay type: functional; settings: TK-10, 48 h
[3] = test system: Panel NCI-60 (60 carcinoma cell lines); assay: Antiproliferative activity against human NCI60 cells assessed as growth inhibition after 48 hrs by sulforhodamine B assay; assay type: functional
[4] = Selectivity index, ratio of IC50 for human WI38 cells to GI50 for human NCI60 cells
[5] = test system: PC-3; assay: Antiproliferative activity against human PC3 cells assessed as growth inhibition after 48 hrs by sulforhodamine B assay; assay type: functional; settings: PC-3, 48 h
[6] = test system: ACHN; assay: Antiproliferative activity against human ACHN cells assessed as growth inhibition after 48 hrs by sulforhodamine B assay; assay type: functional
[7] = test system: A498; assay: Antiproliferative activity against human A498 cells assessed as growth inhibition after 48 hrs by sulforhodamine B assay; assay type: functional; settings: A498, 48 h
[8] = test system: 786-0; assay: Antiproliferative activity against human 786-0 cells assessed as growth inhibition after 48 hrs by sulforhodamine B assay; assay type: functional; settings: 786-0, 48 h
[9] = test system: NCI/ADR-RES; assay: Antiproliferative activity against human NCI-ADR-RES cells assessed as growth inhibition after 48 hrs by sulforhodamine B assay; assay type: functional
[10] = test system: OVCAR-8; assay: Antiproliferative activity against human OVCAR8 cells assessed as growth inhibition after 48 hrs by sulforhodamine B assay; assay type: functional; settings: OVCAR-8, 48 h
[11] = test system: OVCAR-4; assay: Antiproliferative activity against human OVCAR4 cells assessed as growth inhibition after 48 hrs by sulforhodamine B assay; assay type: functional; settings: OVCAR-4, 48 h
[12] = test system: IGROV-1; assay: Antiproliferative activity against human IGROV1 cells assessed as growth inhibition after 48 hrs by sulforhodamine B assay; assay type: functional; settings: IGROV-1, 48 h
[13] = test system: SK-MEL-5; assay: Antiproliferative activity against human SK-MEL-5 cells assessed as growth inhibition after 48 hrs by sulforhodamine B assay; assay type: functional; settings: SK-MEL-5, 48 h
[14] = test system: SK-MEL-28; assay: Antiproliferative activity against human SK-MEL-28 cells assessed as growth inhibition after 48 hrs by sulforhodamine B assay; assay type: functional; settings: SK-MEL-28, 48 h
[15] = test system: MDA-MB-435; assay: Antiproliferative activity against human MDA-MB-435 cells assessed as growth inhibition after 48 hrs by sulforhodamine B assay; assay type: functional; settings: MDA-MB-435, 48 h
[16] = test system: U-251; assay: Antiproliferative activity against human U251 cells assessed as growth inhibition after 48 hrs by sulforhodamine B assay; assay type: functional; settings: U-251, 48 h
[17] = test system: SF-295; assay: Antiproliferative activity against human SF295 cells assessed as growth inhibition after 48 hrs by sulforhodamine B assay; assay type: functional; settings: SF-295, 48 h
[18] = test system: SW-620; assay: Antiproliferative activity against human SW620 cells assessed as growth inhibition after 48 hrs by sulforhodamine B assay; assay type: functional; settings: SW-620, 48 h
[19] = test system: KM12; assay: Antiproliferative activity against human KM12 cells assessed as growth inhibition after 48 hrs by sulforhodamine B assay; assay type: functional; settings: KM12, 48 h
[20] = test system: HT-29; assay: Antiproliferative activity against human HT-29 cells assessed as growth inhibition after 48 hrs by sulforhodamine B assay; assay type: functional; settings: HT-29, 48 h
[21] = test system: HCT-15; assay: Antiproliferative activity against human HCT15 cells assessed as growth inhibition after 48 hrs by sulforhodamine B assay; assay type: functional; settings: HCT-15, 48 h
[22] = test system: HCT-116; assay: Antiproliferative activity against human HCT116 cells assessed as growth inhibition after 48 hrs by sulforhodamine B assay; assay type: functional; settings: HCT-116, 48 h
[23] = test system: HCC 2998; assay: Antiproliferative activity against human HCC2998 cells assessed as growth inhibition after 48 hrs by sulforhodamine B assay; assay type: functional; settings: HCC 2998, 48 h
[24] = test system: COLO 205; assay: Antiproliferative activity against human COLO205 cells assessed as growth inhibition after 48 hrs by sulforhodamine B assay; assay type: functional; settings: COLO 205, 48 h
[25] = test system: NCI-H522; assay: Antiproliferative activity against human NCI-H522 cells assessed as growth inhibition after 48 hrs by sulforhodamine B assay; assay type: functional; settings: NCI-H522, 48 h
[26] = test system: NCI-H322M; assay: Antiproliferative activity against human NCI-H322M cells assessed as growth inhibition after 48 hrs by sulforhodamine B assay; assay type: functional
[27] = test system: NCI-H226; assay: Antiproliferative activity against human NCI-H226 cells assessed as growth inhibition after 48 hrs by sulforhodamine B assay; assay type: functional; settings: NCI-H226, 48 h
[28] = test system: EKVX; assay: Antiproliferative activity against human EKVX cells assessed as growth inhibition after 48 hrs by sulforhodamine B assay; assay type: functional
[29] = test system: A549; assay: Antiproliferative activity against human A549/ATCC cells assessed as growth inhibition after 48 hrs by sulforhodamine B assay; assay type: functional; settings: A549, 48 h
[30] = test system: MOLT-4; assay: Antiproliferative activity against human MOLT4 cells assessed as growth inhibition after 48 hrs by sulforhodamine B assay; assay type: functional; settings: MOLT-4, 48 h
[31] = test system: K562; assay: Antiproliferative activity against human K562 cells assessed as growth inhibition after 48 hrs by sulforhodamine B assay; assay type: functional, cell-based; settings: K562, 48 h, read-out: IC50
[32] = test system: HL-60(TB); assay: Antiproliferative activity against human HL-60(TB) cells assessed as growth inhibition after 48 hrs by sulforhodamine B assay; assay type: functional; settings: HL-60, 48 h
[33] = test system: BT-549; assay: Antiproliferative activity against human BT549 cells assessed as growth inhibition after 48 hrs by sulforhodamine B assay; assay type: functional; settings: BT-549, 48 h
[34] = test system: MDA-MB-468; assay: Antiproliferative activity against human MDA-MB-468 cells assessed as growth inhibition after 48 hrs by sulforhodamine B assay; assay type: functional; settings: MDA-MB-468, 48 h
[35] = Haemolytic activity in human erythrocytes assessed as induction of hemolysis at 5 mM after 30 mins relative to H202; assay type: cell-based, Erythrocyte; settings: read-out: Activity
[36] = test system: Erythrocyte; assay: Haemolytic activity in human erythrocytes assessed as induction of hemolysis at 0.625 mM after 30 mins relative to H202; assay type: cell-based; settings: erythrocyte, 0.5 h, 625 µM
[37] = Antioxidant activity assessed as DPPH radical scavenging activity incubated in dark for 30 mins by spectrophotometric method relative to control; assay type: functional; parameters: concentration or dose not given beside the values
[38] = Antioxidant activity assessed as DPPH radical scavenging activity incubated in dark for 30 mins by spectrophotometric method relative to ascorbic acid; assay type: functional
[39] = Antioxidant activity assessed as ABTS radical scavenging activity by spectrophotometric analysis relative to control; assay type: functional; parameters: concentration or dose not given beside the values; settings: dose or concentration not given here
[40] = Antioxidant activity assessed as ABTS radical scavenging activity by spectrophotometric method relative to ascorbic acid; assay type: functional
[41] = test system: HCT-116; assay: Induction of apoptosis in human HCT116 cells assessed as increase in caspase 9 mRNA expression at 100 nM after 6 hrs hrs by SYBR green dye-based qRT-PCR analysis relative to control; assay type: functional
[42] = test system: HCT-116; assay: […] in CDK1 mRNA expression in human HCT116 cells at 100 nM after 6 hrs hrs by SYBR green dye-based qRT-PCR analysis relative to control; assay type: functional

N=C(N)c1ccc(-c2ccc(-c3ccc(Cl)cc3)o2)o1 showed a GI50 [1] of 1750 nM, a GI50 [2] of 2070 nM and a GI50 [3] of 1810 nM. The LC50 [3] was 12600 nM, the TGI [3] was 3720 nM and the “Selectivity Index” value [4] was 5.5. The GI50 [5] was 1810 nM, the GI50 [6] was 1890 nM and the GI50 [7] was 2120 nM. It also gave a GI50 [8] of 1850 nM, a GI50 [9] of 1800 nM and a GI50 [10] of 2020 nM. The GI50 [11] was 1800 nM, the GI50 [12] was 1770 nM and the GI50 [13] was 1810 nM. It also gave a GI50 [14] of 1830 nM, a GI50 [15] of 1380 nM and a GI50 [16] of 1880 nM. For the same compound, the GI50 [17] was 1830 nM, the GI50 [18] was 1700 nM and the GI50 [19] was 1630 nM. For the same compound, the GI50 [20] was 1680 nM, the GI50 [21] was 1520 nM and the GI50 [22] was 1900 nM. For the same compound, the GI50 [23] was 1960 nM, the GI50 [24] was 1830 nM and the GI50 [25] was 1730 nM. The GI50 [26] was 1670 nM, the GI50 [27] was 2190 nM and the GI50 [28] was 1500 nM. For the same compound, the GI50 [29] was 1980 nM, the GI50 [30] was 1660 nM and the IC50 [31] was 1370 nM. It also gave a GI50 [32] of 1870 nM, a GI50 [33] of 5920 nM and a GI50 [34] of 2190 nM. The hemolysis at 0.5 h, 5000 µM [35] was 70.7%, the Activity [36] was “Non-Toxic” and the inhibition [37] was 17.5%. For the same compound, the fold change (FC) [38] was 0.2, the inhibition [39] was 20.4% and the fold change (FC) [40] was 0.2. For the same compound, the “fold change (FC)” value [41] was 4 and the “fold change (FC)” value [42] was 0.93.
N=C(N)c1ccc(-c2ccc(-c3ccc4ccccc4c3)s2)s1 gave a GI50 [1] of 1960 nM, a GI50 [2] of 2230 nM and a GI50 [3] of 2390 nM. For the same compound, the LC50 [3] was 30200 nM, the TGI [3] was 6020 nM and the “Selectivity Index” value [4] was 34. For the same compound, the GI50 [5] was 2190 nM, the GI50 [6] was 2530 nM and the GI50 [7] was 1700 nM. The GI50 [8] was 2140 nM, the GI50 [9] was 2020 nM and the GI50 [10] was 2270 nM. The GI50 [11] was 1910 nM, the GI50 [12] was 2160 nM and the GI50 [13] was 14700 nM. For the same compound, the GI50 [14] was 2250 nM, the GI50 [15] was 1910 nM and the GI50 [16] was 1810 nM. The GI50 [17] was 2270 nM, the GI50 [18] was 1910 nM and the GI50 [19] was 1920 nM. For the same compound, the GI50 [20] was 1710 nM, the GI50 [21] was 1690 nM and the GI50 [22] was 1770 nM. The GI50 [23] was 2020 nM, the GI50 [24] was 1630 nM and the GI50 [25] was 1960 nM. For the same compound, the GI50 [26] was 1640 nM, the GI50 [27] was 33600 nM and the GI50 [28] was 2460 nM. The GI50 [29] was 2030 nM, the GI50 [30] was 1470 nM and the IC50 [31] was 1530 nM. The GI50 [32] was 1810 nM, the GI50 [33] was 17600 nM and the GI50 [34] was 2380 nM. For the same compound, the hemolysis at 0.5 h, 5000 µM [35] was 13%, the Activity [36] was “Non-Toxic” and the inhibition [37] was 54.6%. It also gave a fold change (FC) [38] of 0.6, an inhibition [39] of 72.8% and a fold change (FC) [40] of 0.8. The “fold change (FC)” value [41] was 2.33 and the “fold change (FC)” value [42] was 0.93.
